What is called IC50 is the concentration that inhibits the measured activity by half. What is called melting point is the temperature of the solid-liquid transition. As a reminder, the viability is the share of living cells, or the viability signal relative to a control.

The structures appear in SMILES notation.

In data set [1] the test system is MCF-7 human breast cancer cells. Nature of the data set: alamarBlue cell viability assay. It is filed as cell-based. The following applies: Homo sapiens, 72 h; for IC50: MCF7, 72 h, alamarBlue, read-out: Antiproliferative Activity MCF-7 Cells IC50. How it is done: (§1) The human breast carcinoma cell line MCF-7 was purchased from the European Collection of Animal Cell Cultures (ECACC) and cultured in Eagles minimum essential medium with 10% foetal bovine serum, 2 mM L-glutamine, and 100 μg/mL penicillin/streptomycin. The medium was supplemented with 1% non-essential amino acids. The human breast carcinoma cell line MDA-MB-231 was purchased from the ECACC. MDA-MB-231 cells were maintained in Dulbecco’s modified Eagle’s medium (DMEM) supplemented with 10% (v/v) foetal bovine serum, 2 mM L-glutamine, and 100 μg/mL penicillin/streptomycin (complete medium). HL-60 cells were derived from a patient with acute myeloid leukaemia and were obtained from the ECACC (Salisbury, UK). Cells were cultured in RPMI-1640 Glutamax medium supplemented with 10% FCS media and 100 μg/mL penicillin/streptomycin. MCF-10A cells were obtained as a kind gift from Dr Susan McDonnell, School of Chemical and Bioprocess Engineering, University College Dublin and were cultured in Dulbecco’s Modified Eagle Medium: Nutrient Mixture F-12 (DMEM/F12; Gibco) supplemented with 5% horse serum (Invitrogen), 20 ng mL^−1 epidermal growth factor (Merck Millipore), 0.5 μg mL^−1 hydrocortisone (Sigma,-Aldrich, Arklow, Co. Wicklow, Ireland), 100 ng mL^−1 cholera toxin (Sigma, Aldrich, Arklow, Co. Wicklow, Ireland), 10 μg mL^−1 insulin (Sigma, Aldrich, Arklow, Co. Wicklow, Ireland), and penicillin/streptomycin 5000 U mL^−1 (1%)(Gibco, Biosciences, 3 Charlemont Terrace, Crofton Road, Dun Laoghaire, Co Dublin, A96 K7H7, Ireland). Cells were maintained at 37 °C in 5% CO2 in a humidified incubator. All cells were sub-cultured 3 times/week by trypsinisation using TrypLE Express (1×).
(§2) Cells were seeded at a density of 2.5 × 10^4 cells/well (MCF-7, MDA-MB-231, MCF-10A cells) and 1 × 10^4 cells/well (HL-60) in 96-well plates (200 μL per well). After 24 h, cells were then treated with either medium alone, vehicle control (1% ethanol (v/v)) or with serial dilutions of CA-4 (4a), phenstatin (7a) or selected compounds (0.001–100 μM) in triplicate. Cell proliferation for MCF-7, MDA-MB-231, and MCF-10A cells was analysed using the alamarBlue assay (Invitrogen Corp.) according to the manufacturer’s instructions. After 67–69 h, alamarBlue (10% (v/v)) was added to each well, and plates were incubated for 3–5 h at 37 °C in the dark. Fluorescence was read using a 96-well fluorimeter with excitation at 530 nm and emission at 590 nm. Results were expressed as percentage viability relative to vehicle control (100%).
For orientation: The colour change of resazurin is a common sign of viable cells or microbes.

Data set [2] concerns tubulin (microtubule network) in MCF-7 cells. As to the kind of experiment: immunofluorescence confocal microscopy of microtubule network. The class given is cell-based, human. Particulars: 1 μM, 16 h. How it is done: Confocal microscopy was used to study the effects of drug treatment on MCF-7 cytoskeleton. For immunofluorescence, MCF-7 cells were seeded at 1 × 10^5 cells/mL on eight chamber glass slides (BD Biosciences). […] Following treatment, cells were gently washed in PBS, fixed for 20 min with 4% paraformaldehyde in PBS, and permeabilised in 0.5% Triton X-100. Following washes in PBS containing 0.1% Tween (PBST), cells were blocked in 5% bovine serum albumin diluted in PBST. […] Following washes in PBST, the cells were mounted in Ultra Cruz Mounting Media (Santa Cruz Biotechnology, Santa Cruz, CA) containing 4,6-diamino-2-phenolindol dihydrochloride (DAPI). Images were captured by Leica SP8 confocal microscopy with Leica application suite X software. All images in each experiment were collected on the same day using identical parameters. Experiments were performed on three independent occasions.

Data set [3] concerns MDA-MB-231 human breast cancer cells. As to the kind of experiment: alamarBlue cell viability assay. Particulars: Homo sapiens, MDA-MB-231, 72 h, read-out: Antiproliferative Activity MDA-MB-231 Cells IC50. The class given is cell-based. The method, then:
as §1, §2

A further data set relates to HL-60 leukaemia cells. As to the kind of experiment: cell viability assay. The following applies: Homo sapiens, read-out: Antiproliferative Activity HL-60 Cells IC50. It is filed as cell-based. How it is done:
as §1, with “Cells were maintained at 37 °C in 5% CO2 in a humidified incubator. All cells were sub-cultured 3 times/week by trypsinisation using TrypLE Express (1×).” left out
Cells were seeded at a density of 2.5 × 10^4 cells/well (MCF-7, MDA-MB-231, MCF-10A cells) and 1 × 10^4 cells/well (HL-60) in 96-well plates (200 μL per well). […] Cell proliferation for MCF-7, MDA-MB-231, and MCF-10A cells was analysed using the alamarBlue assay (Invitrogen Corp.) according to the manufacturer’s instructions. […] Fluorescence was read using a 96-well fluorimeter with excitation at 530 nm and emission at 590 nm. Results were expressed as percentage viability relative to vehicle control (100%).

Setting [4] is: MCF7, read-out: cell viability (viable cells).

`COc1ccc(C(c2ccc(C#N)cc2)n2cncn2)cc1O` (stereo not drawn) [19h, 4-((3-Hydroxy-4-Methoxyphenyl)(1H-1,2,4-Triazol-1-yl)Methyl)Benzonitrile]: the melting point is 168 to 170 °C. For the same compound, the IC50 in data set [1] was over 100000 nM.

For the compound `N#Cc1ccc(C(c2ccc(O)cc2)n2cncn2)cc1` (stereo not drawn) [19i, 4-((4-Hydroxyphenyl)(1H-1,2,4-Triazol-1-yl)Methyl)Benzonitrile], the IC50 in data set [1] was over 100000 nM.

`COc1ccc(C(c2ccc(C#N)cc2)n2cncn2)cc1OCc1ccccc1` (stereo not drawn) [19f, 4-((3-(Benzyloxy)-4-Methoxyphenyl)(1H-1,2,4-Triazol-1-yl)Methyl)Benzonitrile] showed a melting point of 91 to 93 °C.

As to `COc1ccc(C(c2cc(OC)c(OC)c(OC)c2)n2cncn2)cc1OCc1ccccc1` (stereo not drawn) [19a, 1-((3-(Benzyloxy)-4-Methoxyphenyl)(3,4,5-Trimethoxyphenyl)Methyl)-1H-1,2,4-Triazole], the melting point is 98 to 100 °C.

For the compound `CC(=O)O[C@H]1C(=O)[C@@]2(C)[C@H]([C@H](OC(=O)c3ccccc3)[C@]3(O)C[C@H](OC(=O)[C@H](O)[C@@H](NC(=O)c4ccccc4)c4ccccc4)C(C)=C1C3(C)C)[C@]1(OC(C)=O)CO[C@@H]1C[C@@H]2O` [paclitaxel, reference compound], in data set [2], the “effect on microtubule network of MCF-7 cells” value was “Hyperpolymerisation of tubulin”.

In the case of `COc1ccc(/C=C\c2cc(OC)c(OC)c(OC)c2)cc1O` [CA-4, reference compound], the IC50 is 3.9 ± 0.32 nM in data set [1], 43 nM in data set [3] and 1.9 ± 0.5 nM in the data set with HL-60 leukaemia cells. Besides, the viability at 1 µM in data set [1] (setting [4]) worked out at 24%.

`c1ccc(COc2ccc(C(c3ccccc3)n3cncn3)cc2)cc1` (stereo not drawn) [13j, 1-((4-(Benzyloxy)Phenyl)(Phenyl)Methyl)-1H-1,2,4-Triazole]: the melting point fell in the range of 132 to 134 °C.

Consider `COc1ccc(C(c2cc(OC)c(OC)c(OC)c2)N2CCN(c3ccc(C)cc3)CC2)cc1` (stereo not drawn) [27f], for which the viability at 0.1 µM in data set [1] (MCF7, 0.1 μM, read-out: cell viability (viable cells)) is 84%. In data set [1] (setting [4]), the viability at 1 µM was determined as 76% and the viability at 10 µM was 42%.

For `Oc1ccc(C(c2ccc(O)cc2)n2cncn2)cc1` [13o], the viability at 1 µM in data set [1] (setting [4]) came to 68%.

The compound `Brc1ccc(C(c2ccccc2)n2ccnc2)cc1` (stereo not drawn) [20c, 1-((4-Bromophenyl)(Phenyl)methyl)-1H-Imidazole] yielded a melting point of 126 to 128 °C.

Regarding `Fc1ccc(C(c2ccccc2)n2ccnc2)cc1` (stereo not drawn) [20d], the viability at 1 µM in data set [1] (setting [4]) came to 67%.

As for `COc1ccc(C(c2cc(OC)c(OC)c(OC)c2)n2cncn2)cc1` (stereo not drawn) [16c], the viability at 1 µM in data set [1] (setting [4]) is 75%.

In the case of `O=C(Nc1ccc(C(c2ccccc2)n2cncn2)cc1)C(F)(F)F` (stereo not drawn) [13i, 2,2,2-Trifluoro-N-(4-(Phenyl(1H-1,2,4-Triazol-1-yl)Methyl)Phenyl)Acetamide], the melting point lay in the range of 143 to 145 °C.

For `CCOc1ccc(C(c2ccccc2)n2cncn2)cc1` (stereo not drawn) [13l, 1-((4-Ethoxyphenyl)(Phenyl)Methyl)-1H-1,2,4-Triazole], the melting point lay in the range of 98 to 100 °C.

`Fc1ccc(C(c2ccccc2)n2cncn2)cc1` (stereo not drawn) [13c, 1-((4-Fluorophenyl)(Phenyl)Methyl)-1H-1,2,4-Triazole]: the melting point lay within 96 to 99 °C.

`COc1ccc(C(c2cc(OC)c(OC)c(OC)c2)N2CCN(c3ccccc3)CC2)cc1OCc1ccccc1` (stereo not drawn) [27g, 1-((3-(Benzyloxy)-4-Methoxyphenyl)(3,4,5-Trimethoxyphenyl)Methyl)-4-Phenylpiperazine] displayed a melting point of 124 to 126 °C.

On to `Oc1ccc(C(c2ccccc2)n2cncn2)cc1` (stereo not drawn) [13n, 4-(Phenyl(1H-1,2,4-Triazol-1-yl)Methyl)Phenol], for which the melting point was in the range of 189 to 191 °C.

With `COc1ccc(C(c2ccccc2)N2CCCC2)cc1` (stereo not drawn) [25d], the viability at 1 µM in data set [1] (setting [4]) amounted to 80%.

`Brc1ccc(C(c2ccccc2)N2CCCC2)cc1` (stereo not drawn) [25b, 1-((4-Bromophenyl)(Phenyl)methyl)Pyrrolidine] had a melting point of 70 to 72 °C.

For the compound `COc1ccc(C(c2cc(OC)c(OC)c(OC)c2)N2CCN(c3ccccc3)CC2)cc1O` (stereo not drawn) [27i, 2-Methoxy-5-((4-Phenylpiperazin-1-yl)(3,4,5-Trimethoxyphenyl)Methyl)Phenol], in data set [1] (setting [4]), the viability at 10 µM stood at 48%.

Compound `COc1cc(C(c2ccccc2)n2cncn2)cc(OC)c1OC` (stereo not drawn) [16e, 1-(Phenyl(3,4,5-Trimethoxyphenyl)Methyl)-1H-1,2,4-Triazole] returned a melting point of 139 to 140 °C.

On to `N#Cc1ccc(C(c2ccc(OCc3ccccc3)cc2)n2cncn2)cc1` (stereo not drawn) [19g, 4-((4-(Benzyloxy)Phenyl)(1H-1,2,4-Triazol-1-yl)Methyl)Benzonitrile], for which the melting point lay in the range of 79 to 81 °C.

Regarding `O=[N+]([O-])c1ccc(C(c2ccccc2)n2ccnc2)cc1` (stereo not drawn) [20b], the viability at 1 µM in data set [1] (setting [4]) amounted to 73%.

As for `COc1cc(C(c2ccc(F)cc2)n2cncn2)cc(OC)c1OC` (stereo not drawn) [16g], the viability at 1 µM in data set [1] (setting [4]) was 77%.

`Nc1ccc(C(c2ccccc2)n2cncn2)cc1` (stereo not drawn) [13m, 4-(Phenyl(1H-1,2,4-Triazol-1-yl)Methyl)Aniline] had a melting point of 149 to 151 °C. Further, in data set [1] (setting [4]), the viability at 1 µM is 72%.

Regarding `COc1cc(C(c2cc(OC)c(OC)c(OC)c2)n2ccnc2)cc(OC)c1OC` [21i, 1-(Bis(3,4,5-Trimethoxyphenyl)Methyl)-1H-Imidazole], the melting point was 154 to 156 °C.

The record behind these values is publication PMC7926793, “Synthesis and Biological Evaluation of 1-(Diarylmethyl)-1H-1,2,4-triazoles and 1-(Diarylmethyl)-1H-imidazoles as a Novel Class of Anti-Mitotic Agent for Activity in Breast Cancer” (Pharmaceuticals, 2021).
